Data published in patent US20030181376A1, “Control of crop pests & animal parasites through direct neuronal uptake” (priority 2000, published 2003).
Read-outs that look alike come from different tables or passages of the source.

Columns and labels:
Type in all cases: in vivo
Heterodera glycines = experiment: Behavioural bioassay: orientation of H. glycines juveniles to an attractant disc (root exudate) after pre-incubation; settings: for EC50: read-out: concentration giving 50% reduction in attraction of H. glycines to an attractant
Description: This assay was modified from that used by Grundler et al (Parasitology 103, 149-155; 1991). Soybean plants were grown in pots containing perlite in a tropical glasshouse until the root system was well established. Plants were carefully washed free of the perlite in running water and then several plants were placed in 200 cm3 dH2O in a conical flask which was covered in foil to keep light off the roots and then incubated in a Sanyo plant growth cabinet (16 hr light 24° C., 8 hr dark 20° C.) for 48hrs. The root exudate was collected and filter sterilised through 0.45 μm syringe filter.
Agarose discs covered in either dH2O or root exudate were made as follows. Agarose (3 ml, 1.5% solution made in dH2O) was poured into 6 cm petri dishes and allowed to surface dry. One ml of root exudate or dH2O was pipetted onto the plates, the surface covered by swirling and then left to completely evaporate. A cork borer was used to cut out 6 mm discs from the plate.
The oxime carbamate nematicide Aldicarb was obtained by putting 1 g Temik (10G, Rhône-Poulenc), in 10 ml chloroform to dissociate the oxime carbamate from its inert carrier. After 1 hour particulate material was removed by centrifugation. 100, 10 or 1 μl aliquots of the chloroform/aldicarb solution were pipetted into 1.5 ml microtubes and left to evaporate in a fume hood. This leaves 1, 0.1 and 0.01 mg aldicarb respectively in each tube. Addition of 1 ml dH2O to these tubes provides solutions of […] respectively.
Aliquots of juveniles of H. glycines were incubated for 16 hours in a range of concentrations of aldicarb, or in peptides generated that recognise the same acetylcholinesterase (AChE) target as aldicarb (see example IV). The effect of different concentrations of aldicarb or peptides on chemoreception was measured. Control worms were incubated in either water or PBS for the peptide experiments.
Treated nematode juveniles (approximately 300) in small volumes (typically 20 μl) dH2O were placed in the centre of 3.5 cm diameter petri dishes containing 1.5 ml 1.5% agarose. After evaporation of the water the worms were left for 1 hour to randomly distribute over the plate. A root exudate and a water agarose test disc were placed onto the plate equally spaced (5 mm) from the centre. The plates were left for 1 hour at room temperature in the dark. The experiments were carried out in replicates of 8-10 per concentration of aldicarb or peptide assayed. Controls in which nematodes were not treated with any chemical or peptide mimetic were also used for each experimental day to obtain a 100% rate of attraction. This allowed measurements of the extent of chemoattraction mediated by a test compound on any day.
The number of worms under each disc was counted using a dissecting microscope. In control experiments typically 2-4 times as many worms were counted under the root exudate disc as were under the water control disc. The numbers of responders minus the number under the control disc was used to calculate a response. With ˜300 animals on the plate the difference was around 40-80. The difference between the numbers under the attractant and the control discs was used to define the maximum response on that day of experiments.
Various concentrations of these compounds were tested with a modified bioassay. The data sets were analysed using probit analysis within a standard statistical package (SPSS) installed on a personal computer. […] Even higher concentrations of aldicarb and both AChE binding peptides were needed to inhibit movement than required to disrupt chemoreception.
Freshly hatched H. glycines were incubated for 16 hours at room temperature in various concentrations of Levamisole. They were tested using the bioassay in example 3.

Globodera pallida = experiment: Behavioural bioassay: orientation of G. pallida to an attractant disc (50 mM ZnCl2) after pre-incubation; settings: 16 h pre-treatment at 1.242×10^−8 M
Description: (§1) The number of worms under each disc was counted using a dissecting microscope. […] The numbers of responders minus the number under the control disc was used to calculate a response. […] The difference between the numbers under the attractant and the control discs was used to define the maximum response on that day of experiments.
(§2) 50 mM CaCl2 was used as an attractant with the agarose discs. Those assays were carried out at 27° C. […] The peptide was also tested against the potato cyst nematode Globodera pallida using the same methods as described for H. glycines. G. pallida was incubated for 16 h in a solution containing the constrained peptide at 1.242×10^−8 M at room temperature. […]

[1] = test system: Heterodera glycines and Globodera pallida; experiment: Behavioural bioassay, pooled data of H. glycines and G. pallida after pre-incubation in levamisole mimetic peptide; settings: 16 h pre-treatment at 1×10^−6 M; data of two species pooled; values>1 indicate a chemoreceptive response
Description: as §1, §2

[2] = incubation for 16 hours, probit analysis

CHNSHIRWC [control peptide] was tested, and the loss of chemoreception (Heterodera glycines; incubation at 2 μM) was “no loss of chemoreception”.

`c1ccc([C@H]2CN3CCSC3=N2)cc1` [Levamisole] was tested, and the signs of paralysis (Heterodera glycines; 16 hours at room temperature in various concentrations) was “did not show any signs of paralysis” and the inhibition of chemoreception (Heterodera glycines; 16 hours at room temperature in various low concentrations, FIG. 5) was “inhibit chemoreception in a dose-dependent manner”.

For CSINWRHHC [constrained 7 mer peptide], the EC50 (Heterodera glycines; [2]) was 2.16 nM, the “mean value ratio of nematodes under the disc with the attractant rather than without it” value (Globodera pallida; room temperature, bioassay at 20° C., 50 mM ZnCl2, values>1 indicate a chemoreceptive response) was 0.77±0.08 and the “ratio of nematodes under attractant disc versus control disc, 3 hours after the start of the bioassay” value (Globodera pallida; 3 hours after start of the bioassay) was 0.78±0.06.

With `CNC(=O)O/N=C/C(C)(C)SC` [aldicarb, Aldicarb] the “disruption of chemosensory attraction relative to paralysis” value (Heterodera glycines; H. glycines, 16 hours incubation) was “disrupt chemosensory attraction completely at concentrations lower than those which cause paralysis” and the EC50 (Heterodera glycines; Heterodera glycines, 16 h) was 0.0011 ± 0.00306 nM.

With SVSVGMKPSPRP [linear 12 mer peptide] the EC50 (Heterodera glycines; [2]) was 3680 nM.

For CTTMHPRLC, the “mean value ratio of nematodes under the disc with the attractant rather than without it” value [1] was 1.03±0.11 and the “ratio of nematodes under attractant disc versus control disc, 3 hours after the start of the bioassay” value (Heterodera glycines; H. glycines, 16 h pre-treatment at 1×10^−6 M, 3 hours after start of the bioassay) was 1.24±0.11.
